Experimental data as given in patent US12491178B2, “Stable pharmaceutical compositions of edaravone” (Slayback Pharma LLC, priority 2023, dated 2025).

Legend:
[1] = Solubility of edaravone in solubility enhancing agents; format: physicochemical
From the text: The table below, illustrates the best possible solubilizing agents that are utilized in the present invention.

[2] = cited from earlier work

SMILES: CC1=NN(c2ccccc2)C(=O)C1 [edaravone, 3-methy-1-phenyl-2-pyrazolin-5-one]
- Solubility ([1]; in Alcohol): 52.27 mg/gm
- Solubility ([1]; in CCMG 400 LQ (Mixture of caprylocaproyl polyoxylglycerides)): 14.36 mg/gm
- Solubility ([1]; in Capryol 90 (Propylene Glycol Monocaprylate)): 15.8 mg/gm
- Solubility ([1]; in Capryol 90 + Ethanol (50:50)): 65.0 mg/gm
- Solubility ([1]; in Castor Oil): 7.9 mg/gm
- Solubility ([1]; in Castor oil + Ethanol (50:50)): 72.2 mg/gm
- Solubility ([1]; in Cotton seed oil): 2.1 mg/gm
- Solubility ([1]; in Imwitor 988 (Ester of caprylic acid and glycerol)): 13.59 mg/gm
- Solubility ([1]; in Kollisolv MCT 70): 8.61 mg/gm
- Solubility ([1]; in Labrafil M 1944 (Oleoyl polyoxyl-6 glycerides)): 6.9 mg/gm
- Solubility ([1]; in Labrafil M 2125 (Linoleoyl Polyoxyl-6 glycerides)): 9.10 mg/gm
- Solubility ([1]; in Labrasol ALF (Caprylocaproyl Polyoxyl-8 glycerides), edaravone dissolved per gram of agent): 25.1 mg/gm
- Solubility ([1]; in Labrasol ALF + Ethanol (50:50)): 78.8 mg/gm
- Solubility ([1]; in Lauroglycol 90 (Propylene glycol monolaurate)): 8.1 mg/gm
- Solubility ([1]; in Miglyol 812 (Triester of caprylic and capric acid)): 11.26 mg/gm
- Solubility ([1]; in PEG 300 (polyethylene glycol)): 26.4 mg/gm
- Solubility ([1]; in PEG 300 + Ethanol (50:50)): 66.3 mg/gm
- Solubility ([1]; in Peanut oil): 1.7 mg/gm
- Solubility ([1]; in Peppermint Oil): 37.6 mg/gm
- Solubility ([1]; in Peppermint Oil + Ethanol (50:50)): 72.8 mg/gm
- Solubility ([1]; in Polysorbate 20): 17.7 mg/gm
- oral bioavailability (Fabs) [2]: 5.23%
